From ChEMBL document CHEMBL1201862, “PubChem BioAssay data set” (2004) come the findings set out here.

Among the test systems are HOP-18; Hs-578T; U-251; OVCAR-4; SK-OV-3; TK-10; UACC-257; RPMI-8226; OVCAR-3; Malme-3M; MDA-N; BT-549; HOP-92; SN12C; SNB-19; SNB-75; HL-60; NCI-H460; NCI-H226; DU-145.
Holding throughout (assay): NCI-60 cell line screen, 48 h

Structures are written as SMILES.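 Following 48 hours of exposure in 96-well plates, responses at five concentrations were used to interpolate endpoints linearly. GI50 is the concentration that inhibits growth by half.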 Activity calls are given as the source filed them. Rule as the data show it: active = GI50 up to about 1.1 µM and inactive = higher.

On to `Clc1ccc(-c2c(C3=NCCCN3)nnn2-c2ccc(Cl)cc2)cc1`, for which the GI50 was > 100 µM (inactive) in the assay with HOP-18; 26.9 µM (inactive) in the assay on Hs-578T; 49.8 µM (inactive) in the assay with U-251; > 65.2 µM (inactive) in the assay on OVCAR-4; > 76.6 µM (inactive) in the assay with SK-OV-3; 40 µM (inactive) in the assay on TK-10. In addition, the GI50 with UACC-257 is 22.3 µM (inactive); in the assay on RPMI-8226, 31.4 µM (inactive); in the assay with OVCAR-3, > 78.7 µM (inactive); with Malme-3M, 17.8 µM (inactive); in the assay on MDA-N, 19.1 µM (inactive); in the assay with BT-549, > 55.1 µM (inactive). The GI50 was 22.8 µM (inactive) in the assay with HOP-92; 64 µM (inactive) in the assay on SN12C; > 68.7 µM (inactive) in the assay with SNB-19; 29.8 µM (inactive) in the assay with SNB-75; 17.5 µM (inactive) with HL-60; 40.9 µM (inactive) in the assay on NCI-H460. Also, the GI50 in the assay on NCI-H226 was 60.3 µM (inactive); in the assay with DU-145 it was > 91.2 µM (inactive).
Consider `Nc1ncnc2c(C3OC(CO)C(O)C3O)scc12` (stereo not given), for which the GI50 with HOP-18 is < 0.01 µM (active); with U-251 it was 3.78 µM (inactive); with OVCAR-4 it was 0.0468 µM (active); with SK-OV-3, < 0.001 µM (active); in the assay with TK-10 it was 0.191 µM (active); in the assay on UACC-257, 0.0792 µM (active). Also, the GI50 in the assay on RPMI-8226 is 0.00222 µM (active); in the assay on OVCAR-3, 0.00241 µM (active); in the assay on Malme-3M, 2.54 µM (inactive); in the assay with HOP-92, 0.0117 µM (active); with SN12C, 0.373 µM (active); in the assay on SNB-19 it was 1.38 µM (inactive). Besides, the GI50 is 0.459 µM (active) with SNB-75, < 0.001 µM (active) with HL-60, 0.00615 µM (active) with NCI-H460 and 0.0386 µM (active) in the assay with NCI-H226.
Regarding `O=C(Nc1cc(Cl)ccc1Cl)C(=O)C(c1cnc2ccccc2n1)[N+](=O)[O-]` (stereo not given), the GI50 with HOP-18, in the assay on U-251, in the assay on OVCAR-4, with SK-OV-3, in the assay on TK-10 and with UACC-257 was > 100 µM (inactive) in each case. Moreover, the GI50 with RPMI-8226, in the assay with OVCAR-3, in the assay on Malme-3M, in the assay with HOP-92, in the assay on SN12C and with SNB-19 was > 100 µM (inactive) throughout. In addition, the GI50 with SNB-75, in the assay with HL-60, in the assay with NCI-H460 and with NCI-H226 was > 100 µM (inactive) each time.
As to `CC1=CC(=O)N2[C@H](OC[C@@H]2C(C)C)O1`, the GI50 in the assay with HOP-18, in the assay with U-251, in the assay on OVCAR-4, with SK-OV-3, in the assay on TK-10 and with UACC-257 was > 100 µM (inactive) each time. For the same molecule, the GI50 in the assay on RPMI-8226, in the assay with OVCAR-3, in the assay with Malme-3M, in the assay with HOP-92, with SN12C and with SNB-19 was > 100 µM (inactive) each time. Moreover, the GI50 in the assay on SNB-75, in the assay with HL-60, in the assay with NCI-H460 and with NCI-H226 was > 100 µM (inactive) each time.
As for `C/N=c1\ss/c(=N\C(=S)N(C)C)n1C1CCCCC1`, the GI50 with HOP-18 is > 31.6 µM (inactive); in the assay on U-251, > 31.6 µM (inactive); in the assay with OVCAR-4, > 31.6 µM (inactive); in the assay on SK-OV-3 it was 24.2 µM (inactive); with TK-10 it was > 31.6 µM (inactive); with UACC-257 it was > 31.6 µM (inactive). Besides, the GI50 was > 100 µM (inactive) in the assay on RPMI-8226; > 31.6 µM (inactive) in the assay with OVCAR-3; > 31.6 µM (inactive) in the assay with Malme-3M; > 10 µM (inactive) with HOP-92; > 31.6 µM (inactive) with SN12C; > 31.6 µM (inactive) with SNB-19. The GI50 in the assay on SNB-75 was > 10 µM (inactive); with HL-60 it was > 100 µM (inactive); with NCI-H460, > 31.6 µM (inactive); in the assay with NCI-H226, > 31.6 µM (inactive).
`Cc1c(C(=O)CC(=O)C(=O)NC2C3CC4CC(C3)CC2C4)[n+]([O-])c2ccccc2[n+]1[O-]` (stereo not given): the GI50 was 24.4 µM (inactive) in the assay on HOP-18; > 100 µM (inactive) in the assay on U-251; > 100 µM (inactive) in the assay on OVCAR-4; > 100 µM (inactive) in the assay with SK-OV-3; > 100 µM (inactive) in the assay on TK-10; > 100 µM (inactive) in the assay with UACC-257. For the same molecule, the GI50 is > 100 µM (inactive) in the assay on RPMI-8226; 24 µM (inactive) with OVCAR-3; > 100 µM (inactive) in the assay on Malme-3M; > 100 µM (inactive) with HOP-92; > 100 µM (inactive) in the assay with SN12C; > 100 µM (inactive) in the assay with SNB-19. Also, the GI50 with SNB-75, in the assay with HL-60, in the assay on NCI-H460 and with NCI-H226 was > 100 µM (inactive) throughout.
In the case of `O=C(O)CCC(NC(=O)c1ccc(Nc2nc3cc(C(F)(F)F)ccc3nc2-c2ccccc2)cc1)C(=O)O` (stereo not given), the GI50 in the assay with HOP-18 was > 100 µM (inactive); in the assay with U-251 it was 67.1 µM (inactive); with OVCAR-4 it was 31.3 µM (inactive); with SK-OV-3, > 100 µM (inactive); in the assay on UACC-257, > 100 µM (inactive); with RPMI-8226, > 63.1 µM (inactive). In addition, the GI50 in the assay on OVCAR-3 is > 100 µM (inactive); in the assay on Malme-3M, > 100 µM (inactive); in the assay with HOP-92, > 52.6 µM (inactive); in the assay with SN12C it was > 100 µM (inactive); in the assay with SNB-19 it was > 100 µM (inactive); in the assay with SNB-75, > 79.6 µM (inactive). The GI50 in the assay on HL-60 is 84.3 µM (inactive); in the assay on NCI-H460, 43.3 µM (inactive); in the assay with NCI-H226 it was > 100 µM (inactive).
For `CCOC(=O)c1cnc2sc3ccc4ccccc4c3n2c1=O`, the GI50 with HOP-18 was > 100 µM (inactive); with U-251, 94 µM (inactive); with OVCAR-4, 38.9 µM (inactive); in the assay with SK-OV-3, 78.5 µM (inactive); in the assay with TK-10 it was 62.5 µM (inactive); in the assay with UACC-257, 87.9 µM (inactive). Besides, the GI50 in the assay on RPMI-8226 was 27.9 µM (inactive); in the assay on OVCAR-3, 82.2 µM (inactive); in the assay with Malme-3M, 63.2 µM (inactive); in the assay on HOP-92, 28.1 µM (inactive); in the assay with SN12C, 39.3 µM (inactive); in the assay on SNB-19 it was > 100 µM (inactive). The GI50 in the assay with SNB-75 was > 100 µM (inactive); in the assay with HL-60 it was 21.2 µM (inactive); with NCI-H460 it was > 100 µM (inactive); with NCI-H226 it was 30.1 µM (inactive).
Consider `NNC(=O)/C(NC(=O)c1ccccc1)=C(\N)c1ccc(Cl)cc1`, for which the GI50 with HOP-18, in the assay on U-251, with OVCAR-4, with SK-OV-3, in the assay with TK-10 and in the assay with UACC-257 was > 100 µM (inactive) each time. Moreover, the GI50 in the assay on RPMI-8226 is 73.5 µM (inactive); in the assay with OVCAR-3, > 100 µM (inactive); with Malme-3M, > 100 µM (inactive); with HOP-92, > 100 µM (inactive); in the assay on SN12C, > 100 µM (inactive); with SNB-19, > 100 µM (inactive). For the same molecule, the GI50 in the assay with SNB-75, with HL-60, in the assay with NCI-H460 and in the assay with NCI-H226 was > 100 µM (inactive) in each case.
Take `CC1CN1c1c(C(=O)/C=C/c2ccc(F)cc2)c(-c2ccccc2)nn(C)c1=O` (stereo not given): the GI50 is 15.2 µM (inactive) in the assay on HOP-18; 15.5 µM (inactive) in the assay on U-251; 16.5 µM (inactive) in the assay with OVCAR-4; > 10 µM (inactive) with SK-OV-3; 17.2 µM (inactive) in the assay with TK-10; 14.2 µM (inactive) in the assay with UACC-257. Besides, the GI50 in the assay on RPMI-8226 was 9.46 µM (inactive); in the assay on OVCAR-3, 15.4 µM (inactive); in the assay with Malme-3M, 16 µM (inactive); with HOP-92 it was 6.58 µM (inactive); in the assay on SN12C, 15.4 µM (inactive); in the assay on SNB-19, 16 µM (inactive). The GI50 in the assay with SNB-75 is 14.3 µM (inactive); with HL-60 it was 13.4 µM (inactive); in the assay on NCI-H460, 17.1 µM (inactive); in the assay with NCI-H226, 11.9 µM (inactive).
With `c1ccc(C2=NOC3(c4ccccc4)SC4CCCCC4CN23)cc1` (stereo not given), the GI50 in the assay with HOP-18 was 26.9 µM (inactive); with U-251, 15.2 µM (inactive); in the assay with OVCAR-4, 45 µM (inactive); in the assay with SK-OV-3 it was 77.4 µM (inactive); in the assay with TK-10, 83.9 µM (inactive); in the assay on UACC-257 it was 38.5 µM (inactive). In addition, the GI50 was 22 µM (inactive) with RPMI-8226; 39.4 µM (inactive) in the assay on OVCAR-3; 29.8 µM (inactive) with Malme-3M; 15.9 µM (inactive) in the assay on HOP-92; 52.5 µM (inactive) with SN12C; 62.4 µM (inactive) with SNB-19. For the same molecule, the GI50 was 18.2 µM (inactive) in the assay on SNB-75, 5.4 µM (inactive) with HL-60, 32.6 µM (inactive) with NCI-H460 and 36.6 µM (inactive) in the assay with NCI-H226.
Consider `CC(C)(c1ccc(OC#N)cc1)c1ccc(OC#N)cc1`, for which the GI50 was > 100 µM (inactive) with HOP-18; > 68.5 µM (inactive) with U-251; > 100 µM (inactive) with OVCAR-4; > 100 µM (inactive) in the assay with SK-OV-3; > 100 µM (inactive) in the assay on TK-10; > 100 µM (inactive) in the assay on UACC-257. In addition, the GI50 was > 52.6 µM (inactive) in the assay on RPMI-8226; > 100 µM (inactive) with OVCAR-3; > 100 µM (inactive) in the assay with Malme-3M; > 100 µM (inactive) in the assay with HOP-92; > 100 µM (inactive) in the assay with SN12C; > 100 µM (inactive) with SNB-19. In addition, the GI50 is > 52.5 µM (inactive) in the assay with SNB-75, > 55 µM (inactive) in the assay with HL-60, > 58.7 µM (inactive) in the assay on NCI-H460 and > 100 µM (inactive) in the assay on NCI-H226.
